According to PMC10009108, “Design, synthesis and screening of indole acetic acid-based tri-azo moieties as antioxidants, anti-microbial and cytotoxic agents” (Frontiers in Pharmacology, 2023):
Values after ≈ are worked out from the molar mass of the structure shown.

Assays:
[1] = tested on: Aspergillus fumigatus (FCBP-66); experiment: Antifungal disc diffusion assay; type: cell-based; set-up: key to Zone of inhibition, A. fumigatus: --- = no anti-fungal activity; details: 20 μg/disc
Description: (§1) The antifungal response to these chemical moieties was evaluated through a procedure designated by ([Zahra et al., 2017]). Amphotericin B (4 mg/mL DMSO) is used as + ve control and DMSO as-ve one (5 μL/disc). Sterile SDA-coated plates were used, on which 100 µL of suspension of spores for each strain (previously reaped-in-Tween-20 solution) was spread. Discs of sterile filter paper containing 5 µL of sample solution (4 mg/mL DMSO) were kept on plates and incubated for 2 days at 28°C. Zones of inhibition were recorded.
(§2) The Synthetic compound library was subjected to an antifungal assay using five different strains of Fungai, i.e., Fusarium solani (FCBP-0291), Aspergillus fumigatus (FCBP-66), Aspergillus flavus (FCBP-0064), Aspergillus niger (FCBP-0198) and Mucor species (FCBP-0300). Amphotericin B was the standard drug used. […] The outcomes are concise in Table 5.

[2] = tested on: Klebsiella pneumoniae (ATCC-1705); experiment: Antibacterial assay, micro broth dilution; type: cell-based
From the text: (§3) The micro broth dilution method was used to establish the antibacterial potential of test samples against Staphylococcus aureus (ATCC-6538), Bacillus subtilis (ATCC-6633), Escherichia coli (ATCC-25922), Klebsiella pneumoniae (ATCC-1705), and Pseudomonas aeruginosa (ATCC-15442) and for the resistant strains of MRSA Staphylococcus aureus, P. aeruginosa and Escherichia coli. The procedure used is described by ([Sarker et al., 2007]). Bacterial inoculum was formed under aseptic conditions keeping the density near 5 × 10^4 CFU/mL in pre-autoclaved nutrient broth. Test samples of an aliquot of 5 µL were shifted to labeled wells of 96 well plates, and after that addition of 195 µL of nutrient broth; was accomplished. After that, a 2-fold serial dilution of every sample was arranged to get final concentrations of 12.5 μg/mL. Then, with the help of a micropipette, 195 µL of bacterial culture of respective strains was poured into each well; further advancement was incubating of plates for 30 min at the temperature of 37°C. […] Incubation of plates was again carried out at 37°C for 1 day, absorbance was noted, and net change in turbidity was the difference between two values of absorbance.
(§4) Schiff base tri-azo compounds were investigated for antibacterial potential. […] 6.25 μg/mL for 5b and 5g, and the least, Table 4 3.12 μg/mL was for 5f. […] Substituents with electron-withdrawing attributes, e.g., -NO2, -Cl, -OH on the aromatic ring, assert a great impact on the antibacterial activity of synthetic compounds. It is also observed that an increase in the number of -OH groups tend to enhance the activity ([Hosamani and Shingalapur, 2011]). Due to the difference in cell-wall composition of Gram + ve and -ve bacteria, different compounds show different features towards the same micro-organism ([Goszczyn’ska et al., 2015]).

[3] = tested on: Pseudomonas aeruginosa (ATCC-15442); experiment: Antibacterial assay, micro broth dilution; type: cell-based; set-up: key: Active = Bacterial activity; --- = no activity; details: 25 μg/mL
in vivo = experiment: in vivo
Description: The cytotoxic evaluation was accomplished using the decorum designed by ([Khan et al., 2011]). To a plate of 96 wells, artificial seawater and nauplii were added. Test samples were taken in wells (40, 20, 10, 5 μg/mL) after making up the final volume with seawater, the plates were left uncovered under the lamp, and after 24 h, the number of surviving larvae was calculated. For samples having ≥50% mortality, the median lethal conc was calculated using the table curve software, Doxorubicin was used as + ve control, and DMSO was the -ve. The percentage of killed organisms was found using the formula. Percentage Mortality=No of dead shrimps÷Total Number of Shrimps×100
The results of all the experiments were articulated as mean ± SD. Each test was performed in triplicate. TAC assay was analyzed by one-way analysis of variance (ANOVA) following DUNCAN’S test using the statistical package for social sciences 18 and p < 0.05 was considered as significant where appropriate. For samples having ≥50% mortality, the median lethal concentration (LC50) was calculated using the table curve software.
This evaluation test forms the basis for the bioactive scanning of compounds for their potential as anti-cancer moieties, to be investigated on a large scale ([Amanullah et al., 2012]). […] Similarities between Artemia salina and mammalian cells have been reported due to DNA-dependent RNA polymerases ([Birndorf et al., 1975]). These Schiff bases were investigated for their cytotoxic potential. […] Doxorubicin was used as the positive control.

[4] = tested on: Fusarium solani (FCBP-0291); experiment: Antifungal disc diffusion assay; type: cell-based; set-up: key to Zone of inhibition, F. solani: --- = no anti-fungal activity
Description: as §1, §2

[5] = tested on: Bacillus subtilis (ATCC-6633); experiment: Antibacterial assay, micro broth dilution; type: cell-based; set-up: key to Antibacterial activity, Bacillus subtilis: Activity: Active = Bacterial activity; --- = no activity; details: 25 μg/mL
From the text: as §3, §4

[6] = DPPH free radical scavenging assay; details: at 50 μg/mL
Description: The DPPH assay was executed via the technique stated by ([Bibi et al., 2011]). DPPH(Diphenyl-1-picrylhydrazyl), a free radical, is bagged to inquire about the antioxidant ability of the synthesized compounds. 10 μL from the synthesized compound (1 mg/mL DMSO) is added to 190 μL DPPH solution., making up the final conc. of 50 μg/mL.
DPPH assay was repeated in triplicate using DMSO as -ve and ascorbic acid as + ve control; findings are expressed as means standard deviation.
It is one of the very commonly utilized methods for the assessment of the antioxidant ability of compounds. DPPH turns from purple to yellow, which indicates the synthetic compound’s scavenging potential ([Rahman et al., 2017]). DMSO and A.A. were used as -ve and +ve control. The antioxidant potential of compounds was assessed at 50 μg/mL, 25 μg/mL, 12.5 μg/mL, and 6.25 μg/mL. […] Production of free radicals is an outcome of regular oxygen consumption in the body; whenever something is missing with the natural antioxidant mechanism, the accumulation of these free radicals may lead to cytotoxic interaction with the body systems and may cause damage to genomic content of various cells, and proteins in the body ([Barbuceanu et al., 2014]). Free radical accumulation is also associated with different diseases, e.g., coronary heart disease, neuronic disorders, diabetes, necrosis, and various tumors ([Ismaili.et al., 2008]). The antioxidant potential of the compound depends upon its reducing power; the introduction of hydroxy and methoxy groups on the Benzene ring led to better reducing power or promising antioxidant activity ([Rakesh et al., 2015]).

| SMILES | MIC ([2]; ATCC1705) | %DPPH inhibition (% free radical scavenging) [6] | MIC ([2]; ATCC1705, 24 h) | Zone of inhibition, A. fumigatus [1] | Antibacterial activity, Pseudomonas aeruginosa: Activity [3] | LC50 at 24 h (in vivo) | Zone of inhibition, F. solani ([4]; 20 μg/disc) | Antibacterial activity, Bacillus subtilis: Activity [5] | antifungal activity against Fusarium solani (in words) [4] | zone of inhibition at 20 µg/disc ([4]; Fusarium solani, 20 μg/disc, read-out: Zone of inhibition, F. solani) |
| --- | --- | --- | --- | --- | --- | --- | --- | --- | --- | --- |
| S=c1[nH]nc(Cc2c[nH]c3ccccc23)n1N=Cc1ccc(Cl)cc1 [Compound 5c] | 12.5 µg/mL (≈ 34 µM) | 11.1% |  | --- | --- | 5.7 µg/mL (≈ 15.5 µM) | --- |  |  |  |
| O=[N+]([O-])c1ccc(C=Nn2c(Cc3c[nH]c4ccccc34)n[nH]c2=S)cc1 [Compound 5d] | 12.5 µg/mL (≈ 33 µM) | 11.1% |  | --- | --- | 5.7 µg/mL (≈ 15.1 µM) | --- |  |  |  |
| Oc1ccc(C=Nn2c(Cc3c[nH]c4ccccc34)n[nH]c2=S)cc1 [Compound 5e] | 12.5 µg/mL (≈ 35.8 µM) | 8.3% |  | --- | Active | 14.1 µg/mL (≈ 40.5 µM) | 6 mm | --- | active | > 6 mm |
| COc1cc(C=Nn2c(Cc3c[nH]c4ccccc34)n[nH]c2=S)cc(OC)c1OC [Compound 5g] | 6.25 µg/mL (≈ 14.8 µM) |  |  | --- | --- | 18.2 µg/mL (≈ 42.9 µM) | --- | --- |  |  |

Second part, led by results:

| MIC ([2]; ATCC1705) | %DPPH inhibition (% free radical scavenging) [6] | MIC ([2]; ATCC1705, 24 h) | SMILES | Zone of inhibition, A. fumigatus [1] | Antibacterial activity, Pseudomonas aeruginosa: Activity [3] | LC50 at 24 h (in vivo) | Zone of inhibition, F. solani ([4]; 20 μg/disc) | Antibacterial activity, Bacillus subtilis: Activity [5] | antifungal activity against Fusarium solani (in words) [4] | zone of inhibition at 20 µg/disc ([4]; Fusarium solani, 20 μg/disc, read-out: Zone of inhibition, F. solani) |
| --- | --- | --- | --- | --- | --- | --- | --- | --- | --- | --- |
| 12.5 µg/mL (≈ 35.8 µM) |  |  | Oc1cccc(C=Nn2c(Cc3c[nH]c4ccccc34)n[nH]c2=S)c1 [Compound 5a] | --- | Active | 11.2 µg/mL (≈ 31.9 µM) | --- |  |  |  |
| 6.25 µg/mL (≈ 17.2 µM) | 32% |  | COc1cccc(C=Nn2c(Cc3c[nH]c4ccccc34)n[nH]c2=S)c1 [Compound 5b] | --- | Active | 14.1 µg/mL (≈ 38.9 µM) | --- | --- |  |  |
| 3.12 µg/mL (≈ 8.48 µM) |  | 3.12 µg/mL (≈ 8.49 µM) | S=c1[nH]nc(Cc2c[nH]c3ccccc23)n1N=Cc1cccc(Cl)c1 [Compound 5f] | --- | --- | 5.7 µg/mL (≈ 15.5 µM) | --- | --- |  |  |
